The record followed here is ChEMBL document CHEMBL3739326, “ent-Kaurene Glycosides from Ageratina cylindrica” (J Nat Prod, 2015).

One test has as its system Giardia intestinalis. The test is described as follows: Antiprotozoal activity against Giardia lamblia IMSS:1090:1. To be noted: Giardia duodenalis. Format: functional, organism-based.
A further test deals with Entamoeba histolytica. In words: Antiprotozoal activity against Entamoeba histolytica HM-1:IMSS. Format: functional, organism-based.

As for `C=C1[C@@H]2CC[C@H]3[C@]4(C)CCC[C@@](C)(C(=O)O[C@@H]5O[C@H](CO)[C@@H](O)[C@H](O)[C@H]5O)[C@H]4CC[C@]3(C2)[C@@H]1O[C@H]1O[C@@H](C)[C@@H](OC(C)=O)[C@@H](O)[C@@H]1O`, the concentration for half-maximal inhibition (IC50) with Giardia intestinalis came to 69.5 µM; with Entamoeba histolytica, 49.5 µM.
For `C=C1[C@@H]2CC[C@H]3[C@]4(C)CCC[C@@](C)(C(=O)O[C@@H]5O[C@H](CO)[C@@H](O)[C@H](O)[C@H]5O)[C@H]4CC[C@]3(C2)[C@@H]1O[C@H]1O[C@@H](C)[C@@H](O)[C@@H](OC(C)=O)[C@@H]1O`, in that order: 48.9 µM and 52.7 µM.
For `C=C1[C@@H]2CC[C@H]3[C@]4(C)CCC[C@@](C)(C(=O)O)[C@H]4CC[C@]3(C2)[C@@H]1O[C@H]1O[C@@H](C)[C@@H](O)[C@@H](O)[C@@H]1O`, in that order: 98.5 µM and 73.5 µM.
For `C=C1[C@@H]2CC[C@H]3[C@]4(C)CCC[C@@](C)(C(=O)O[C@@H]5O[C@H](CO)[C@@H](O)[C@H](O)[C@H]5O)[C@H]4CC[C@]3(C2)[C@@H]1O[C@H]1O[C@@H](C)[C@@H](O)[C@@H](O)[C@@H]1O`, in that order: 41.9 µM and 43.3 µM.
